Active and inactive are the calls of the source. How the calls were made is not given here.
biological target: Ubiquitin-conjugating enzyme E2 N (Homo sapiens) (UniProt P61088); experiment: UBE2N binders by NMR, biophysical, purified protein (AID 1552); conditions: NMR binding to purified UBE2N
Sequence (P61088 whole entry, looked up): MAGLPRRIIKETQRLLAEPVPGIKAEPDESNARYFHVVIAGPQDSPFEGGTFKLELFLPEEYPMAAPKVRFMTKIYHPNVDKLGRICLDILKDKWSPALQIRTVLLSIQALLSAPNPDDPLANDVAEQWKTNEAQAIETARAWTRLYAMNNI

Structure (SMILES)	Kd
CC(=O)N1CN(C(C)=O)CN(C(C)=O)C1	> 4 mM (inactive)
O=C(O)c1cncc(-c2cccs2)c1	> 4 mM (inactive)
COC(=O)c1nc(-c2ccccc2)oc1N(C)C	> 4 mM (inactive)
S=C(NCc1cccnc1)NC1CC1	> 4 mM (inactive)
CC1=C(C(N)=O)C(c2ccco2)C(C(N)=O)=C(C)N1	> 4 mM (inactive)
CC1=C(/C=C/C(C)=C/C=C/C(C)=C/C=C/C=C(C)/C=C/C=C(C)/C=C/C2=C(C)CCCC2(C)C)C(C)(C)CCC1	> 4 mM (inactive)
Cc1cc(C)n2nc(-c3cccnc3)nc2n1	> 4 mM (inactive)
O=c1ccnc(Nc2ccccc2O)[nH]1	> 4 mM (inactive)
O=C(O)C1C(=O)NCC1c1ccccc1 (stereo not drawn)	> 4 mM (inactive)
O=c1cc(-c2cc(O)c(O)c(O)c2)oc2cc(O)cc(O)c12	> 4 mM (inactive)
NC1CCN(Cc2ccccc2)CC1	> 4 mM (inactive)
CC(=O)N1C(=S)NC(=O)/C1=C\c1cccnc1	> 4 mM (inactive)
Cn1c(=O)cc(O)c2ccccc21	> 4 mM (inactive)
Cc1c(C)[n+]([O-])c(-c2ccc([N+](=O)[O-])cc2)n1O	> 4 mM (inactive)
CC(=O)NS(=O)(=O)c1ccc(C)cc1	> 4 mM (inactive)
CS/C(N)=C\C(C)=O	> 4 mM (inactive)
CC(=O)C1CCC2C3CCC4C[C@H](O)CCC4(C)C3C[C@H](O)C12C (stereo partly drawn)	> 4 mM (inactive)
COCC(=O)Nc1ccc(F)cc1F	> 4 mM (inactive)
Cn1c(SCC(N)=O)nc2c1c(=O)[nH]c(=O)n2C	> 4 mM (inactive)
Nc1ccc(Oc2ccccc2)nc1	> 4 mM (inactive)
COC(=O)c1cccs1	> 4 mM (inactive)
Cc1cc(=O)n2nc(-c3ccccc3)sc2n1	> 4 mM (inactive)
Cc1ncoc1C(=O)Nc1ncc([N+](=O)[O-])s1	> 4 mM (inactive)
Cc1cc(C(=O)NC(C)c2ccncc2)cs1 (stereo not drawn)	> 4 mM (inactive)

Structure (SMILES)	Kd
CNC(=O)C(=O)Nc1ccc(C)c(C)c1	> 4 mM (inactive)
O=C(O)c1cccnc1	> 4 mM (inactive)
COC(=O)Nc1nc2c(s1)CCCC2	> 4 mM (inactive)
Cc1csc2nc(=O)c3ccccc3n12	> 4 mM (inactive)
O=C(CSc1nc2ccccc2[nH]1)N1CCCCC1	> 4 mM (inactive)
Cc1ccc(S(=O)(=O)CCc2ccccn2)cc1	> 4 mM (inactive)
O=C(c1ccco1)N1CCNCC1	> 4 mM (inactive)
COc1cccc(NC(=O)c2ocnc2C)c1	> 4 mM (inactive)
NC1=NC(=O)/C(=C/c2ccc(O)c(Cl)c2)S1	> 4 mM (inactive)
CC(=O)CC1CCCCN1 (stereo not drawn)	> 4 mM (inactive)
CC1SC(=NC(=O)c2ccco2)NC1=O (stereo not drawn)	> 4 mM (inactive)
O=C(Nc1ccccc1)c1cnc2n(c1=O)CCS2	> 4 mM (inactive)
Cc1cc(C(=O)NCc2cccnc2)no1	> 4 mM (inactive)
COc1c2c(cc3occ(-c4ccc5c(c4)OCO5)c(=O)c13)OC(C)(C)C=C2	> 4 mM (inactive)
Nc1ccccc1N1CCOCC1	> 4 mM (inactive)
C=C1C(=O)O[C@@H]2C[C@@]3(C)CCC[C@H](C)C3=C[C@H]12	> 4 mM (inactive)
NC(=O)c1ccc(N2C(=O)C=CC2=O)cc1Cl	> 4 mM (inactive)
CN(C)C(=O)CSc1cccc2cccnc12	> 4 mM (inactive)
CN1CCOc2cc(C(=O)O)ccc21	> 4 mM (inactive)
COC(=O)N1CCN(c2ccc(C(C)=O)cc2)CC1	> 4 mM (inactive)
Cn1c(C(=O)O)ccc1S(N)(=O)=O	> 4 mM (inactive)
O=C(Nc1ccccc1)Nc1ccccn1	> 4 mM (inactive)
O=C1NC(=S)NC(=O)C1=Cc1cccs1	> 4 mM (inactive)
Cc1ccccc1C(=O)Nn1cnnc1	> 4 mM (inactive)

Structure (SMILES)	Kd
O=C(Nc1ccc2c(c1)OCO2)c1ccc(=O)[nH]n1	> 4 mM (inactive)
COc1ccc2c(c1)C(NC(C)=O)C(=O)N2C (stereo not drawn)	> 4 mM (inactive)
Nc1nc(SCc2ccc3c(c2)OCO3)n[nH]1	> 4 mM (inactive)
O=C(NN1C(=O)c2ccccc2C1=O)c1cccs1	> 4 mM (inactive)
O=C(O)/C=C1\NC(=O)c2ccccc21	> 4 mM (inactive)
NC(=O)CC1Sc2ccccc2NC1=O (stereo not drawn)	> 4 mM (inactive)
c1csc(-c2nn[nH]n2)c1	> 4 mM (inactive)
CC(=O)Oc1ccc(N2C(=O)C3C4C=CC(O4)C3C2=O)cc1 (stereo not drawn)	> 4 mM (inactive)
S=C(c1ccc2c(c1)OCO2)N1CCCC1	> 4 mM (inactive)
O=C1C=CC2=C3c4cc(O)c(O)cc4CC3(O)COC2=C1O (stereo not drawn)	> 4 mM (inactive)
COc1c(O)cccc1O	> 4 mM (inactive)
COC(=O)c1cccc(C(F)(F)F)c1	> 4 mM (inactive)
Cc1n[nH]c(=S)n(/N=C/c2cccs2)c1=O	> 4 mM (inactive)
COc1ccc(Cl)cc1NC(=O)c1ccco1	> 4 mM (inactive)
CC(=O)Oc1c2c(c3c(c1CC=C(C)C)O[C@]14C(=C[C@@H]5CC1C(C)(C)OC4(C/C=C(\C)C(=O)O)C5=O)C3=O)OC(C)(CCC=C(C)C)C=C2 (stereo partly drawn)	> 4 mM (inactive)
Cc1ccc(-n2cnnn2)c2cccnc12	> 4 mM (inactive)
COc1cc2cc3c4cc(OC)c(OC)cc4cc[n+]3c(C)c2cc1OC	> 4 mM (inactive)
Oc1ccc(C2SCCS2)cc1	> 4 mM (inactive)
CC(C)/C(O)=C1/C(=O)O[C@@H](c2ccoc2)[C@]2(C)C(O)[C@@H](O)[C@@]34OC5(C)OC67CC(C)(C(O)[C@]6(O)[C@@H](O)[C@]3(O5)C12)[C@H](CC(=O)O)[C@]74C (stereo partly drawn)	> 4 mM (inactive)
Cn1c(-c2ccccc2F)n[nH]c1=S	> 4 mM (inactive)
C=CCCCCCCCCCCCC(O)CC(O)COC(C)=O (stereo not drawn)	> 4 mM (inactive)
O=[N+]([O-])c1cccc(-c2c[n+](=O)c3c(n2[O-])CCC3)c1	> 4 mM (inactive)
O=C(CC1CCCCC1)N1CCN(c2ccccn2)CC1	> 4 mM (inactive)
Cc1cc(C)n(C/C=C/Cn2nc(C)cc2C)n1	> 4 mM (inactive)

Structure (SMILES)	Kd
Cn1c(=O)c2c([nH]c(=O)n2C)n(C)c1=O	> 4 mM (inactive)
COc1ccc(O)c(-c2cn[nH]c2-c2cccs2)c1	> 4 mM (inactive)
COC(=O)c1ccc(/C=C2/NC(=S)NC2=O)cc1	> 4 mM (inactive)
Nc1cccc(-n2cnnn2)c1	> 4 mM (inactive)
O=C(CC1SC(=O)NC1=O)Nc1nccs1 (stereo not drawn)	> 4 mM (inactive)
O=C(Nc1ccccc1)N1CCOCC1	> 4 mM (inactive)
Cc1cc(C(=O)NC(C)c2ccncc2)no1 (stereo not drawn)	> 4 mM (inactive)
CC(=O)Nc1cccc(-c2nc3ccccc3c(=O)o2)c1	> 4 mM (inactive)
COC1=CC23CCCN2CCc2cc4c(cc2C3C1O)OCO4 (stereo not drawn)	> 4 mM (inactive)
O=C(NC12CC3CC(CC(C3)C1)C2)c1cnccn1	> 4 mM (inactive)
CSc1nnc(CN2CCSCC2)n1C	> 4 mM (inactive)
Cc1nnc(N2CCc3ccccc3C2)[nH]c1=O	> 4 mM (inactive)
NC(=O)CSc1nc2ccccc2o1	> 4 mM (inactive)
CS(=O)(=O)Nc1nnc(Cc2ccccc2)s1	> 4 mM (inactive)
CC[C@@H]1[C@@H](O)N2C3C[C@H]1C1C(O)[C@]4(C[C@@H]12)c1ccccc1N(C)[C@@H]34 (stereo partly drawn)	> 4 mM (inactive)
c1ccc(-c2nnc3sc(-c4ccncc4)nn23)cc1	> 4 mM (inactive)
Nc1ncc2[nH]cnc2n1	> 4 mM (inactive)
CC(=O)Nc1ccc2c(c1)C(=O)N(C1CCCCC1)C2=O	> 4 mM (inactive)
COc1ccccc1-c1cn[nH]c(=S)n1	> 4 mM (inactive)
COC(=O)/C(C)=C\CC12OC(C)(C)C3CC(C=C4C(=O)c5c(OC)c6c(c(CC=C(C)C)c5OC431)OC(C)(CCC=C(C)C)C=C6)C2=O (stereo not drawn)	> 4 mM (inactive)
COC(=O)[C@@H]1OC(=O)[C@H]2O[C@@]23[C@@]1(C)CCC1[C@@]2(C)CCC(=O)C(C)(C)C2C[C@@H](OC(C)=O)[C@]13C (stereo partly drawn)	> 4 mM (inactive)
Cc1cc(=O)[nH]c(N)n1	> 4 mM (inactive)
CCc1ccc(/C=N/n2cnnc2)cc1	> 4 mM (inactive)
Cc1ccc(C(=O)NCCO)c(Cl)c1	> 4 mM (inactive)

Structure (SMILES)	Kd
Nn1cnn2c(SCc3ccccc3)nnc12	> 4 mM (inactive)
NC(=O)C1CCN(CC2CC=CCC2)CC1 (stereo not drawn)	> 4 mM (inactive)
O=C(NCC1CCNCC1)c1ccncc1	> 4 mM (inactive)
Oc1ccc(-n2cncn2)cc1	> 4 mM (inactive)
Cc1cc([N+](=O)[O-])cc[n+]1[O-]	> 4 mM (inactive)
COc1c2c(cc3cc[n+](C)cc13)OCO2	> 4 mM (inactive)
CC(=O)O[C@H]1C[C@@H](OC(C)=O)C(C)(C)C2C[C@@H](OC(C)=O)[C@]3(C)C(CC[C@@]4(C)[C@H](c5ccoc5)C(=O)[C@H]5O[C@]543)[C@]21C (stereo partly drawn)	> 4 mM (inactive)
O=C(O)C12CC3CC(CC(O)(C3)C1)C2	> 4 mM (inactive)
S=C(CN1CCCC1=S)N1CCOCC1	> 4 mM (inactive)
NC(=O)c1sc2ccccc2c1Cl	> 4 mM (inactive)
C=C(C)CSc1nc2nc(C)cc(C)n2n1	> 4 mM (inactive)
CC(C)(C)NC(=O)N1CCC(C(=O)O)CC1	> 4 mM (inactive)
Fc1cccc(F)c1CN1CCN(c2ncccn2)CC1	> 4 mM (inactive)
O=S1(=O)NC(=NCc2ccco2)c2ccccc21	> 4 mM (inactive)
NC(=O)C1CCN(C(=S)Nc2ccccc2)CC1	> 4 mM (inactive)
Nc1ncnc(Cl)c1[N+](=O)[O-]	> 4 mM (inactive)
N#Cc1cccc(Cn2nnc(-c3ccccc3)n2)c1	> 4 mM (inactive)
O=C(Nc1ccc(F)cc1F)c1ccco1	> 4 mM (inactive)
CC(C)CCn1cnc2c1c(=O)n(C)c(=O)n2C	> 4 mM (inactive)
Cc1cc2ncc(C(=O)O)c(C)n2n1	> 4 mM (inactive)
CC(NC(=O)c1ccco1)C1CCCO1 (stereo not drawn)	> 4 mM (inactive)
CC(=O)Nc1nc2c(s1)C(=O)NCCC2	> 4 mM (inactive)
